Test results taken from patent publication US10738067B2, “Inhibitors of cyclin-dependent kinase 7 (CDK7)” (Syros Pharmaceuticals, Inc., priority 2018, dated 2020).

Legend:
HCC70 cells = experiment: HCC70 cell proliferation assay (CyQUANT Direct, 72 hours); type: cell-based; details: Homo sapiens, inhibition of proliferation
Protocol: The HCC70 cell line was derived from human TNBC, and we tested representative compounds of the invention, at different concentrations (from 4 μM to 126.4 pM; 0.5 log serial dilutions), for their ability to inhibit the proliferation of those cells. More specifically, we tested the same compounds tested above for CDK7 selectivity (the structures of which are shown in FIG. 1), and we used the known CDK inhibitors dinaciclib (or […]) and triptolide as positive controls. The cells were grown in ATCC-formulated RPMI-1640 medium (ATCC 30-2001) supplemented with 10% fetal bovine serum (FBS), at 37° C. in a humidified chamber in the presence of 5% CO2. We conducted proliferation assays over a 72-hour time period using a CyQUANT® Direct Cell Proliferation Assay (Life Technologies, Chicago, Ill. USA) according to the manufacturer's directions and utilizing the reagents supplied with the kit.

[1] = tested on: palbociclib-resistant ER+BC PDX (ST1799); experiment: Tumor growth inhibition in palbociclib-resistant ER+BC PDX model ST1799; type: in vivo, Mice; details: last day of 28 days dosing, Compound 101 6 mg/kg QD PO, fulvestrant 2.5 mg/kg once weekly SC, palbociclib 50 mpk QD PO
Protocol: (§1) Tumor growth inhibition was evaluated in estrogen receptor-positive breast cancer (ER+BC) PDX models selected in vivo for resistance to the CDK4/6 inhibitor palbociclib (ST1799, n=1) or resistance to both palbociclib and fulvestrant (ST941, n=1). Dosing was initiated when tumors were 100-200 mm^3.

[2] = tested on: palbociclib and fulvestrant double-resistant ER+BC PDX model (ST941); experiment: Tumor growth inhibition in palbociclib and fulvestrant double-resistant ER+BC PDX model ST941; type: in vivo, Mice; details: fulvestrant 2.5 mg/kg once weekly SC; for anti-tumor activity (in words): palbociclib 50 mpk QD PO
Protocol: as §1

[3] = tested on: ST390 (modeling pancreatic ductal adenocarcinoma (PDAC)); experiment: Tumor growth inhibition in PDAC PDX model ST390; type: in vivo, NOD/SCID mice
Protocol: (§2) In the TNBC model, Compound 101 was orally administered to tumor-bearing NOD/SCID mice at 10 mg/kg QD or 5 mg/kg BID for 21 days. In the SCLC and HGSOC models, Compound 101 was orally administered to tumor-bearing NOD/SCID mice at 3 mg/kg BID for 21 days. In the PDAC model, Compound 101 was orally administered to tumor-bearing NOD/SCID mice at 6 mg/kg QD. In the TNBC, SCLC, and HGSOC models, tumor volume was measured during the treatment period and for an additional 21 days after treatment ceased. […] The % regression was calculated as: (Mean TV Compound 101 @ EOT)/(Mean TV Compound 101 @Day 0)×100. The same calculations were used for end of study (day 42).

[4] = tested on: PDX models BR5010 (TNBC), LU5178 (SCLC), OV15398 (HGSOC); experiment: Tumor growth inhibition in TNBC, SCLC and HGSOC PDX models; type: in vivo, NOD/SCID mice
[5] = tested on: 12 PDX models representing SCLC, TNBC and HGSOC; experiment: Tumor growth inhibition in 12 PDX models (SCLC, TNBC, HGSOC); type: in vivo, Mice
Protocol: We evaluated TGI in 12 different PDX models (Crown Biosciences) in various tumor indications with PDXs representing SCLC (n=5; LU5180, LU5178, LU5192, LU5173, LU5210), TNBC (n=4; BR5010, BR1458, BR5399, BR10014) and HGSOC (n=3; OV15398, OV5392, OV15631). Dosing was initiated when tumors were 150-300 mm^3. […] TGI was calculated on the last day of dosing using the formula: TGI=(Vc1−Vt1)/(Vc0−Vt0), where Vc1 and Vt1 are the mean volumes of control and treated groups at the time of tumor extraction, while Vc0 and Vt0 are the same groups at the start of dosing.

in vivo = details: NOD/SCID, mouse, oral
Protocol: as §2
(§3) Dosing was initiated when tumors were 150-300 mm^3. Mice were treated with either Compound 101, QD (6 or 10 mg/kg once daily, by mouth) or BID (3 or 5 mg/kg twice daily, by mouth) over the course of 21 days, followed by 21 days of observation. TGI was calculated on the last day of dosing using the formula: TGI=(Vc1−Vt1)/(Vc0−Vt0), where Vc1 and Vt1 are the mean volumes of control and treated groups at the time of tumor extraction, while Vc0 and Vt0 are the same groups at the start of dosing.

[6] = Tolerability in tumor-bearing mice (PDX studies); details: all once-daily doses tested
Protocol: as §2, §3

Q: With `C[C@H]1CC[C@H](Nc2ncc(C(F)(F)F)c(-c3c[nH]c4c(P(C)(C)=O)c(C#N)ccc34)n2)CN1` [Compound 100, 7-dimethylphosphoryl-3-[2-[[(3S, 6S)-6-methyl-3-piper-idyl]amino]-5-(trifluoromethyl)pyrimidin-4-yl]-1H-indole-6-carbonitrile] as the compound, how does the EC50 (HCC70 cells) read?
A: 0.98 nM

Q: For `CC(=O)c1c(C)c2cnc(Nc3ccc(N4CCNCC4)cn3)nc2n(C2CCCC2)c1=O` [palbociclib], which “Tumor growth inhibition (TGI)” value [1] is on record?
A: 21%

Q: What about the “anti-tumor activity (in words)” value [2] of the same compound?
A: no activity

Q: With `CC1(C)CNC[C@@H](Nc2ncc(C(F)(F)F)c(-c3c[nH]c4c(P(C)(C)=O)c(C#N)ccc34)n2)C1` [Compound 102, (S)-7-(dimethylphosphoryl)-3-(2-((5,5-dimethylpiperidin-3-yl)amino)-5-(trifluoromethyl)pyrimidin-4-yl)-1H-indole-6-carbonitrile] as the compound, how does the EC50 (HCC70 cells) read?
A: 2.1 nM

Q: With `C[C@]12CC[C@@H]3c4ccc(O)cc4C[C@@H](CCCCCCCCC[S+]([O-])CCCC(F)(F)C(F)(F)F)[C@H]3[C@@H]1CC[C@@H]2O` (stereo partly drawn) [fulvestrant] as the compound, how does the “Tumor growth inhibition (TGI)” value [1] read?
A: 60%

Q: What about the “anti-tumor activity (in words)” value [2] of the same compound?
A: no activity

Q: Which results are given for `CC1(C)CC[C@H](Nc2ncc(C(F)(F)F)c(-c3c[nH]c4c(P(C)(C)=O)c(C#N)ccc34)n2)CN1` [Compound 101, (S)-7-(dimethylphosphoryl)-3-(2-((6,6-dimethylpiperidin-3-yl)amino)-5-(trifluoromethyl)pyrimidin-4-yl)-1H-indole-6-carbonitrile]?
A: EC50 (HCC70 cells): 5.6 nM; Tumor growth inhibition (TGI) [1]: 83%; Tumor growth inhibition (TGI) ([2]; last day of 28 days dosing, Compound 101 6 mg/kg QD PO): 33%; Tumor growth inhibition (TGI) ([3]; 6 mg/kg QD PO, over ~28 days, sub-MTD dose): 100%; tumor volume ([3]; day 21, 6 mg/kg QD, PO): about 250 mm^3; TGI (in words) ([4]; TNBC 10 mg/kg QD or 5 mg/kg BID, SCLC and HGSOC 3 mg/kg BID, oral, 21 days, plus 21 days observation): deep and sustained TGI, including regressions; transcriptional responses in xenograft tissue ([4]; observed within 4 hours of dosing, sustained for 24 hours): Dose-dependent transcriptional responses; TGI at the end of the 21-day dosing period ([5]; all 12 PDX models, 6 or 10 mg/kg QD or 3 or 5 mg/kg BID, by mouth): at least 50%; tumor regrowth after treatment discontinuation ([5]; subset of models (7/12), 21 days after treatment discontinuation): no evidence of tumor regrowth; TGI of deep responses (TGI or regression) ([5]; subset of models (58%, 7/12)): > 95%; MTD at 21 days (in vivo): > 10 mg/kg; body weight loss (tolerability) [6]: no evident body weight loss
